Drawing on US10646488B2 (Araxes Pharma LLC, priority 2016, dated 2020), this text covers Binding % for 21 compounds.

The first experiment has as its target T1, KRAS G12C 1-169, his-tagged protein, GDP-loaded (Homo sapiens, UniProt P01116, G12C).
T1 construct: KRAS G12C 1-169, his-tagged protein, GDP-loaded
The experiment can be described thus: Covalent binding (% modification) to KRAS G12C by mass spectrometry. Further: test concentration or dose not given here. Conditions: % modification at 10 min (footnote †).
Regarding `C[C@@H]1CN(c2nc(N3CC(N(C)C)C3)nc3c(F)c(-c4c(O)cccc4F)c(Cl)cc23)[C@@H](C)CN1C(=O)C1CO1` (stereo partly drawn) [Compound 115, ((2R,5S)-4-(6-chloro-2-(3-(dimethylamino)azetidin-1-yl)-8-fluoro-7-(2-fluoro-6-hydroxyphenyl)quinazolin-4-yl)-2,5-dimethyl-piperazin-1-yl) (oxiran-2-yl) methanone], the Binding % entry was “+ (+ indicates binding activity greater than 0% and up to 50%)”.

Still in this experiment, the particulars now being: covalent binding to KRAS G12C after a ten minute incubation period.
Turning to `C=CC(=O)N1[C@H](C)CN(c2nc(OCCN(CC)CC)nc3c(F)c(-c4c(O)cccc4F)c(Cl)cc23)C[C@@H]1C` [Compound 29, 1-((2R,6S)-4-(6-chloro-2-(2-(diethylamino)ethoxy)-8-fluoro-7-(2-fluoro-6-hydroxyphenyl)quinazolin-4-yl)-2,6-dimethyl-piperazin-1-yl) prop-2-en-1-one], the Binding % entry is on record as “++ (++ indicates binding activity from 50 to 90%)”.

On to `C=CC(=O)N1C[C@H](C)N(c2nc(OCCN3CC(F)(F)C3)nc3c(F)c(-c4c(O)cccc4F)c(Cl)cc23)C[C@H]1C` (atropisomer, axis not shown) [Compound 84, 1-((2R,5S)-4-((S)-6-chloro-2-(2-(3,3-difluoroazetidin-1-yl)ethoxy)-8-fluoro-7-(2-fluoro-6-hydroxyphenyl)quinazolin-4-yl)-2,5-dimethyl-piperazin-1-yl) prop-2-en-1-one], for which the Binding % entry was “+++ (+++ indicates binding activity greater than 90%)”.

As for `C=CC(=O)N1C[C@H](C)N(c2nc(NC3CCN(C4CC4)CC3)nc3c(F)c(-c4c(C)ccc5[nH]ncc45)c(Cl)cc23)C[C@H]1C` [Compound 50, 1-((2R,5S)-4-(6-chloro-2-((1-cyclopropyl-piperidin-4-yl)amino)-8-fluoro-7-(5-methyl-1H-indazol-4-yl)quinazolin-4-yl)-2,5-dimethyl-piperazin-1-yl) prop-2-en-1-one], the Binding % result is recorded as “++ (++ indicates binding activity from 50 to 90%)”. `C=CC(=O)N1C[C@@H](C)N(c2nc(OCCN3CC(F)(F)C3)nc3c(F)c(-c4c(C)ccc5cn[nH]c45)c(Cl)cc23)[C@@H](C)C1` [Compound 47, 1-((3S,5R)-4-(6-chloro-2-(2-(3,3-difluoroazetidin-1-yl)ethoxy)-8-fluoro-7-(6-methyl-1H-indazol-7-yl)quinazolin-4-yl)-3,5-dimethyl-piperazin-1-yl) prop-2-en-1-one]: the Binding % entry is listed as “++ (++ indicates binding activity from 50 to 90%)”. `C=CC(=O)N1C[C@H](C)N(c2nc(N3CC(N(C)C)C3)nc3c(F)c(-c4c(C)ccc5[nH]ncc45)c(Cl)cc23)C[C@H]1C` [Compound 54, 1-((2R,5S)-4-(6-chloro-2-(3-(dimethylamino)azetidin-1-yl)-8-fluoro-7-(5-methyl-1H-indazol-4-yl)quinazolin-4-yl)-2,5-dimethyl-piperazin-1-yl) prop-2-en-1-one]: the Binding % entry is recorded as “+++ (+++ indicates binding activity greater than 90%)”.

As for `C=CC(=O)N1C[C@@H](C)N(c2nc(N)nc3c(F)c(-c4cc(O)cc5ccccc45)c(Cl)cc23)[C@@H](C)C1` [Compound 18, 1-((3S,5R)-4-(2-amino-6-chloro-8-fluoro-7-(3-hydroxynaphthalen-1-yl)quinazolin-4-yl)-3,5-dimethyl-piperazin-1-yl) prop-2-en-1-one], the Binding % entry is “++ (++ indicates binding activity from 50 to 90%)”. Take `C=CC(=O)N1CCN(c2nc(N3CC(N(C)C)C3)nc3c(F)c(-c4c(C)ccc5cn[nH]c45)c(Cl)cc23)C[C@H]1C` [Compound 69, 1-((2R)-4-(6-chloro-2-(3-(dimethylamino)azetidin-1-yl)-8-fluoro-7-(6-methyl-1H-indazol-7-yl)quinazolin-4-yl)-2-methyl-piperazin-1-yl) prop-2-en-1-one]: the Binding % result is given as “+++ (+++ indicates binding activity greater than 90%)”. Same read-out and setting: for `C=CC(=O)N1CCN(c2nc(OCCN3CC(F)(F)C3)nc3c(F)c(-c4c(O)cccc4F)c(Cl)cc23)[C@@H](C)C1` [Compound 11, 1-((3S)-4-(6-chloro-2-(2-(3,3-difluoroazetidin-1-yl)ethoxy)-8-fluoro-7-(2-fluoro-6-hydroxyphenyl)quinazolin-4-yl)-3-methylpiperazin-1-yl)prop-2-en-1-one] the value was “+++ (+++ indicates binding activity greater than 90%)”.

Still in this experiment, the particulars now being: covalent binding to KRAS G12C after a three minute incubation period.
Regarding `C=CC(=O)N1C[C@H](C)N(c2nc(OCCCN(C)C)nc3c(F)c(-c4c(C)ccc5cn[nH]c45)c(Cl)cc23)C[C@H]1C` [Compound 191, 1-((2R,5S)-4-(6-chloro-2-(3-(dimethylamino)propoxy)-8-fluoro-7-(6-methyl-1H-indazol-7-yl)quinazolin-4-yl)-2,5-dimethyl-piperazin-1-yl) prop-2-en-1-one], the Binding % result is reported as “+++ (+++ indicates binding activity greater than 90%)”. Still for that read-out and setting: as for `C=CC(=O)N1C[C@H](C)N(c2nc(N3CC(N(CC)CC)C3)nc3c(F)c(-c4c(O)cccc4F)c(Cl)cc23)C[C@H]1C` (atropisomer, axis not shown) [Compound 176, 1-((2R,5S)-4-(6-chloro-2-(3-(diethylamino)azetidin-1-yl)-8-fluoro-7-((R)-2-fluoro-6-hydroxyphenyl)quinazolin-4-yl)-2,5-dimethyl-piperazin-1-yl) prop-2-en-1-one], the entry is “+ (+ indicates binding activity greater than 0% and up to 50%)”; as for `C=CC(=O)N1C[C@H](C)N(c2nc(N3CC(N(CC)C4CC4)C3)nc3c(F)c(-c4c(C)ccc5cn[nH]c45)c(Cl)cc23)C[C@H]1C` [Compound 116, 1-((2R,5S)-4-(6-chloro-2-(3-(cyclopropyl (ethyl)amino)azetidin-1-yl)-8-fluoro-7-(6-methyl-1H-indazol-7-yl)quinazolin-4-yl)-2,5-dimethyl-piperazin-1-yl) prop-2-en-1-one], “++ (++ indicates binding activity from 50 to 90%)”; as for `C=CC(=O)N1C[C@H](C)N(c2nc(OCCc3ncccn3)nc3c(F)c(-c4c(C)ccc5[nH]ncc45)c(Cl)cc23)C[C@H]1C` [Compound 197, 1-((2R,5S)-4-(6-chloro-8-fluoro-7-(5-methyl-1H-indazol-4-yl)-2-(2-(pyrimidin-2-yl)ethoxy)quinazolin-4-yl)-2,5-dimethyl-piperazin-1-yl) prop-2-en-1-one], “+++ (+++ indicates binding activity greater than 90%)”. Consider `C=CC(=O)N1C[C@H](C)N(c2nc(N3CC(C)(N(C)C)C3)nc3c(F)c(-c4c(O)cccc4F)c(Cl)cc23)C[C@H]1C` [Compound 104, 1-((2R,5S)-4-(6-chloro-2-(3-(dimethylamino)-3-methylazetidin-1-yl)-8-fluoro-7-(2-fluoro-6-hydroxyphenyl)quinazolin-4-yl)-2,5-dimethyl-piperazin-1-yl) prop-2-en-1-one], for which the Binding % result is recorded as “+++ (+++ indicates binding activity greater than 90%)”. Take `C=CC(=O)N1C[C@H](C)N(c2nc(Oc3cnn(C)c3)nc3c(F)c(-c4c(O)cccc4F)c(Cl)cc23)C[C@H]1C` [Compound 225, 1-((2R,5S)-4-(6-chloro-8-fluoro-7-(2-fluoro-6-hydroxyphenyl)-2-(1-methyl-1H-pyrazol-4-yloxy)quinazolin-4-yl)-2,5-dimethyl-piperazin-1-yl) prop-2-en-1-one]: the Binding % entry is “++ (++ indicates binding activity from 50 to 90%)”. Same read-out and setting: as for `C=CC(=O)N1C[C@H](C)N(c2nc(N3CC(N(C)C)C3)nc3c(F)c(-c4ccccc4F)c(Cl)cc23)C[C@H]1C` [Compound 132, 1-((2R,5S)-4-(6-chloro-2-(3-(dimethylamino)azetidin-1-yl)-8-fluoro-7-(2-fluorophenyl)quinazolin-4-yl)-2,5-dimethyl-piperazin-1-yl) prop-2-en-1-one], the entry is “++ (++ indicates binding activity from 50 to 90%)”; as for `C=CC(=O)N1C[C@H](C)N(c2nc(N3CC(NC)C3)nc3c(F)c(-c4c(O)cccc4F)c(Cl)cc23)C[C@H]1C` [Compound 96, 1-((2R,5S)-4-(6-chloro-8-fluoro-7-(2-fluoro-6-hydroxyphenyl)-2-(3-(methylamino)azetidin-1-yl)quinazolin-4-yl)-2,5-dimethyl-piperazin-1-yl) prop-2-en-1-one], “+++ (+++ indicates binding activity greater than 90%)”; as for `C=CC(=O)N1C[C@H](C)N(c2nc(N3CC(N(CC)CC)C3)nc3c(F)c(-c4c(C)ccc5[nH]ncc45)c(Cl)cc23)C[C@H]1C` (atropisomer, axis not shown) [Compound 151, 1-((2R,5S)-4-(6-chloro-2-(3-(diethylamino)azetidin-1-yl)-8-fluoro-7-((R)-5-methyl-1H-indazol-4-yl)quinazolin-4-yl)-2,5-dimethyl-piperazin-1-yl) prop-2-en-1-one], “+++ (+++ indicates binding activity greater than 90%)”.

Take `C=CC(=O)N1C[C@H](C)N(c2nc(N3CC(N(C)C)C3)nc3c(F)c(-c4cc(O)cc5ccccc45)c(Cl)cc23)C[C@H]1C` (atropisomer, axis not shown) [Compound 219, 1-((2R,5S)-4-(6-chloro-2-(3-(dimethylamino)azetidin-1-yl)-8-fluoro-7-((S)-3-hydroxynaphthalen-1-yl)quinazolin-4-yl)-2,5-dimethyl-piperazin-1-yl) prop-2-en-1-one]: the Binding % entry was “+++ (+++ indicates binding activity greater than 90%)”.

With `C=CC(=O)N1C[C@H](C)N(c2nc(N3CC4(CCOCC4)C3)nc3c(F)c(-c4c(C)ccc5[nH]ncc45)c(Cl)cc23)C[C@H]1C` [Compound 162, 1-((2R,5S)-4-(6-chloro-8-fluoro-7-(5-methyl-1H-indazol-4-yl)-2-(7-oxa-2-azaspiro[3.5]nonan-2-yl)quinazolin-4-yl)-2,5-dimethyl-piperazin-1-yl) prop-2-en-1-one], the Binding % entry is “+ (+ indicates binding activity greater than 0% and up to 50%)”. With `C=CC(=O)N1C[C@H](C)N(c2nc(OCCCN(C)C)nc3c(F)c(-c4c(O)cccc4F)c(C(F)(F)F)cc23)C[C@H]1C` [Compound 218, 1-((2R,5S)-4-(2-(3-(dimethylamino)propoxy)-8-fluoro-7-(2-fluoro-6-hydroxyphenyl)-6-(trifluoromethyl)quinazolin-4-yl)-2,5-dimethyl-piperazin-1-yl) prop-2-en-1-one], the Binding % result is “+++ (+++ indicates binding activity greater than 90%)”.
